Results taken from US20200360477A1, “INHALABLE FORMULATIONS FOR KINASE INHIBITION” (Aerovate Therapeutics, Inc., priority 2019, published 2020).
Read-outs that look alike come from different tables or passages of the source.

Legend:
FLT4 = FLT4 (Homo sapiens, UniProt P35916); assay: KINOMEscan competition binding assay
FYN = FYN (Homo sapiens, UniProt P06241); assay: KINOMEscan competition binding assay
LCK = LCK (Homo sapiens, UniProt P06239); assay: KINOMEscan competition binding assay
SRC = SRC (Homo sapiens, UniProt P12931); assay: KINOMEscan competition binding assay
DDR1 = DDR1 (Homo sapiens, UniProt Q08345); assay: KINOMEscan competition binding assay
ABL-1-nonphosphorolated [1] = molecular target: T1, ABL-1-nonphosphorolated (Homo sapiens, UniProt P00519); assay: biochemical; details: read-out: Compound Activity Remaining at 1 μM (%)
ABL-1-nonphosphorolated [2] = molecular target: T1, ABL-1-nonphosphorolated; details: ABL1
FRK = FRK (Homo sapiens, UniProt P42685); assay: KINOMEscan competition binding assay
HCK = HCK (Homo sapiens, UniProt P08631); assay: KINOMEscan competition binding assay
RET = molecular target: T2, RET (Homo sapiens, UniProt P07949); assay: KINOMEscan competition binding assay
T2 construct: purchased Eurofins DiscoverX Corporation (KINOMEscan); host or cells: E. coli BL21-derived host (T7 phage) or HEK-293
Description: (§1) The ligand-bound beads were blocked with excess biotin and washed with blocking buffer (SeaBlock (Pierce), 1% BSA, 0.05% Tween 20, 1 mM DTT) to remove unbound ligand and to reduce nonspecific binding. […] Kds were determined using an 11-point 3-fold compound dilution series with three DMSO control points.
(§2) Each was a final volume of 0.02 ml.

LYN = molecular target: T3, LYN (Homo sapiens, UniProt P07948); assay: KINOMEscan competition binding assay
T3 construct: purchased Eurofins DiscoverX Corporation (KINOMEscan); host or cells: E. coli BL21-derived host (T7 phage) or HEK-293
T3 sequence (P07948 whole entry): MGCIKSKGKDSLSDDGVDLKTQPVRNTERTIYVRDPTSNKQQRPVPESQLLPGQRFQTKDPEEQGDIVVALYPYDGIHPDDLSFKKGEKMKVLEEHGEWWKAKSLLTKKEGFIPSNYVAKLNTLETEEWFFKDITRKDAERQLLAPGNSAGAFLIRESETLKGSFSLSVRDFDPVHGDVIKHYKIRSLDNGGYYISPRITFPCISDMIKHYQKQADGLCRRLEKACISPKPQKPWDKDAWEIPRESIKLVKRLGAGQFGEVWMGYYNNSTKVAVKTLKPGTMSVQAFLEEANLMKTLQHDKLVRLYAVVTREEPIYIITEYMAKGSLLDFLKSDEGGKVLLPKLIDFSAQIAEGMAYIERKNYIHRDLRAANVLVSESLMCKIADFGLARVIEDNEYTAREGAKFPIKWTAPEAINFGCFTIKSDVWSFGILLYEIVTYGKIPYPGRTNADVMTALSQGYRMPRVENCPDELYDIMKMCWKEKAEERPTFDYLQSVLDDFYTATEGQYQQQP
Description: as §1, §2

VEGFR2 = molecular target: T4, VEGFR2 (Homo sapiens, UniProt P35968); assay: KINOMEscan competition binding assay
T4 construct: purchased Eurofins DiscoverX Corporation (KINOMEscan); host or cells: E. coli BL21-derived host (T7 phage) or HEK-293
T4 sequence (P35968 20-1356): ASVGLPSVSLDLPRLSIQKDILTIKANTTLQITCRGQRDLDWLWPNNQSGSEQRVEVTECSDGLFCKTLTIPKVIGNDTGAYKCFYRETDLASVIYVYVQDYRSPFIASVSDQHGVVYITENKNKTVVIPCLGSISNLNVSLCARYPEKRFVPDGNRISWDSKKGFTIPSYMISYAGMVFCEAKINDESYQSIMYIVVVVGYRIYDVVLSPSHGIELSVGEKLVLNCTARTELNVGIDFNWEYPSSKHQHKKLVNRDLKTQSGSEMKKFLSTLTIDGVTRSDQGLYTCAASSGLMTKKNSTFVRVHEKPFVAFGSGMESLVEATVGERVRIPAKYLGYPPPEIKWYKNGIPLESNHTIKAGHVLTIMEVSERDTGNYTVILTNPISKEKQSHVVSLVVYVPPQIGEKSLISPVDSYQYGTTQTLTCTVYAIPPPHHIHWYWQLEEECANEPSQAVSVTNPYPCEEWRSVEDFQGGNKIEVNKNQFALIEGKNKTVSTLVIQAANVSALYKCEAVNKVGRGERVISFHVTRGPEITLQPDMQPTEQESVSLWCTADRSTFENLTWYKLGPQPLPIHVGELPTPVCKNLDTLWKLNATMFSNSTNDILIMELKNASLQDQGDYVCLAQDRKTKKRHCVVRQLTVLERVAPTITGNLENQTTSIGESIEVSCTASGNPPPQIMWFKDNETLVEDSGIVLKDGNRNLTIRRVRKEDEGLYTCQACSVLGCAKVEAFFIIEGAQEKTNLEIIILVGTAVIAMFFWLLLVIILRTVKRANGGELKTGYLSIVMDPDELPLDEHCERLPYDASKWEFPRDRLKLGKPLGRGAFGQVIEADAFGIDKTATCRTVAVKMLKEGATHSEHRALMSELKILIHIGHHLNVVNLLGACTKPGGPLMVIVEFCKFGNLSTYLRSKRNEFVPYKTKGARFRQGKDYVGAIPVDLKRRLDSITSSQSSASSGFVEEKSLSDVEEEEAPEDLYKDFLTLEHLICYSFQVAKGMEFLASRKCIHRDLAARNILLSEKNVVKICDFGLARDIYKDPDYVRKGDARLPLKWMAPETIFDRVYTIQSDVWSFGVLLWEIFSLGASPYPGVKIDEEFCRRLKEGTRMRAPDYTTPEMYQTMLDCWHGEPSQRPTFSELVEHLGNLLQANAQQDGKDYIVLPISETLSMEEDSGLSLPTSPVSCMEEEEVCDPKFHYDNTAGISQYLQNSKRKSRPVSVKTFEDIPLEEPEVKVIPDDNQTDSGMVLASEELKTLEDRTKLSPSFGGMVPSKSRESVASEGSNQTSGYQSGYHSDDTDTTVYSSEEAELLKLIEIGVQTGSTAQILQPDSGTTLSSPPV
Description: as §1, §2

PDGFR-α = molecular target: T5, PDGFR-α (Homo sapiens, UniProt P16234); assay: KINOMEscan competition binding assay
T5 construct: purchased Eurofins DiscoverX Corporation (KINOMEscan); host or cells: E. coli BL21-derived host (T7 phage) or HEK-293
T5 sequence (P16234 24-1089): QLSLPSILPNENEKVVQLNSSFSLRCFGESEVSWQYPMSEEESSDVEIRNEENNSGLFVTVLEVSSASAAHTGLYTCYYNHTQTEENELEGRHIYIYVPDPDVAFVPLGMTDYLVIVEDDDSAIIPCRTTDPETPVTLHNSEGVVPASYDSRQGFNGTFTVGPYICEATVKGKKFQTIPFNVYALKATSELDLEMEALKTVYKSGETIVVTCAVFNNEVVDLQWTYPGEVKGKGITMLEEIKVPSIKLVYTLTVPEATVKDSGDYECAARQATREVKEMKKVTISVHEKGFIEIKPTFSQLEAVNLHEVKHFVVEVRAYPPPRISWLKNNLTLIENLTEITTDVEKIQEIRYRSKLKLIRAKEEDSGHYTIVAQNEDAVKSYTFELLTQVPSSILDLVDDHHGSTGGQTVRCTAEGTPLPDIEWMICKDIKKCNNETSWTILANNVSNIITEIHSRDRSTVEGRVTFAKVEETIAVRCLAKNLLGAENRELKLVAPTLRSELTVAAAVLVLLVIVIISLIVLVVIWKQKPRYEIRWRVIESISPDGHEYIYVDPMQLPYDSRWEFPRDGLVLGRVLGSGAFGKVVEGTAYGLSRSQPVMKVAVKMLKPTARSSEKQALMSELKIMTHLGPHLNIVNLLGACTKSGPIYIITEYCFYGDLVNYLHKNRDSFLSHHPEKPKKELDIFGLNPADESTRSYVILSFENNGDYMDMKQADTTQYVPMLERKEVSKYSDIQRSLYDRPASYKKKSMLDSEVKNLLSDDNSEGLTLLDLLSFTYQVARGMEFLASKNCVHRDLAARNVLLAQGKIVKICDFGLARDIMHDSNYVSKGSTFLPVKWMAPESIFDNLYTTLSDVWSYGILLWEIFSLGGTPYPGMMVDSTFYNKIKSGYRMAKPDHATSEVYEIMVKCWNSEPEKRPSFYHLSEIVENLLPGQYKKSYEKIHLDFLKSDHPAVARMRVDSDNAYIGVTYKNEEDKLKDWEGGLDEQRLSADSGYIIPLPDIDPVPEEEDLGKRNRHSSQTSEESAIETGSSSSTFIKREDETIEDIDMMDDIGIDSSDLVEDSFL
Description: as §1, §2

PIK4CB = molecular target: T6, PIK4CB (Homo sapiens, UniProt Q9UBF8); assay: KINOMEscan competition binding assay
T6 construct: purchased Eurofins DiscoverX Corporation (KINOMEscan); host or cells: E. coli BL21-derived host (T7 phage) or HEK-293
Description: as §1, §2

PDGFR-β = molecular target: T7, PDGFR-β (Homo sapiens, UniProt P09619); assay: KINOMEscan competition binding assay
T7 construct: purchased Eurofins DiscoverX Corporation (KINOMEscan); host or cells: E. coli BL21-derived host (T7 phage) or HEK-293
T7 sequence (P09619 33-1106): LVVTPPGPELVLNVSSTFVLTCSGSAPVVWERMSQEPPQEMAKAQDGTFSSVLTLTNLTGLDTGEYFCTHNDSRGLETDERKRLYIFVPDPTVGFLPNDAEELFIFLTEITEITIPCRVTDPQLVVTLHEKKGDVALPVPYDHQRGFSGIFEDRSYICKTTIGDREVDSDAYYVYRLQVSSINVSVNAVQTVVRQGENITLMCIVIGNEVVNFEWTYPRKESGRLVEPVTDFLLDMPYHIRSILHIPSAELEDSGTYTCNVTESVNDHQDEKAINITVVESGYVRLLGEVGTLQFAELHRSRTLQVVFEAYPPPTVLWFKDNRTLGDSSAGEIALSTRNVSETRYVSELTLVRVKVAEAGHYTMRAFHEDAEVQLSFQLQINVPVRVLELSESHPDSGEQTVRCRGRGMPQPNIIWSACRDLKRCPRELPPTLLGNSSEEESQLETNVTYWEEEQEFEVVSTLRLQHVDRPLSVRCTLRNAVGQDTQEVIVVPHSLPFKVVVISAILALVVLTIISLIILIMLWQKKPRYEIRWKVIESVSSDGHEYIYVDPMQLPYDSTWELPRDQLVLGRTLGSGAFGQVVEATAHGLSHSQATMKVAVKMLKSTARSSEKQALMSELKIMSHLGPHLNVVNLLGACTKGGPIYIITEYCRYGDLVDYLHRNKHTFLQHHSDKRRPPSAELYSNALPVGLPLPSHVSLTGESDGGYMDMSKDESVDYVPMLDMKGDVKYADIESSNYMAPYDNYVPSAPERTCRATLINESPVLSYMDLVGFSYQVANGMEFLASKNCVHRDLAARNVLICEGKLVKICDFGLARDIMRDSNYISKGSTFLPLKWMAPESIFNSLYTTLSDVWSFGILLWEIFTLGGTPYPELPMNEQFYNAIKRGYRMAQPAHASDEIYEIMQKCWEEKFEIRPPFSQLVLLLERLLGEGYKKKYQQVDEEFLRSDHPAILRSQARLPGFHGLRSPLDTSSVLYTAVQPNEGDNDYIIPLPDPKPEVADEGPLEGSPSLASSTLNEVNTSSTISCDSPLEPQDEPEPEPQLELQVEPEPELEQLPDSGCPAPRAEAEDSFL
Description: as §1, §2

FGR = molecular target: T8, FGR (Homo sapiens, UniProt P09769); assay: KINOMEscan competition binding assay
T8 construct: purchased Eurofins DiscoverX Corporation (KINOMEscan); host or cells: E. coli BL21-derived host (T7 phage) or HEK-293
Description: as §1, §2

DDR2 = molecular target: T9, DDR2 (Homo sapiens, UniProt Q16832); assay: KINOMEscan competition binding assay
T9 construct: purchased Eurofins DiscoverX Corporation (KINOMEscan); host or cells: E. coli BL21-derived host (T7 phage) or HEK-293
T9 sequence (Q16832 22-855): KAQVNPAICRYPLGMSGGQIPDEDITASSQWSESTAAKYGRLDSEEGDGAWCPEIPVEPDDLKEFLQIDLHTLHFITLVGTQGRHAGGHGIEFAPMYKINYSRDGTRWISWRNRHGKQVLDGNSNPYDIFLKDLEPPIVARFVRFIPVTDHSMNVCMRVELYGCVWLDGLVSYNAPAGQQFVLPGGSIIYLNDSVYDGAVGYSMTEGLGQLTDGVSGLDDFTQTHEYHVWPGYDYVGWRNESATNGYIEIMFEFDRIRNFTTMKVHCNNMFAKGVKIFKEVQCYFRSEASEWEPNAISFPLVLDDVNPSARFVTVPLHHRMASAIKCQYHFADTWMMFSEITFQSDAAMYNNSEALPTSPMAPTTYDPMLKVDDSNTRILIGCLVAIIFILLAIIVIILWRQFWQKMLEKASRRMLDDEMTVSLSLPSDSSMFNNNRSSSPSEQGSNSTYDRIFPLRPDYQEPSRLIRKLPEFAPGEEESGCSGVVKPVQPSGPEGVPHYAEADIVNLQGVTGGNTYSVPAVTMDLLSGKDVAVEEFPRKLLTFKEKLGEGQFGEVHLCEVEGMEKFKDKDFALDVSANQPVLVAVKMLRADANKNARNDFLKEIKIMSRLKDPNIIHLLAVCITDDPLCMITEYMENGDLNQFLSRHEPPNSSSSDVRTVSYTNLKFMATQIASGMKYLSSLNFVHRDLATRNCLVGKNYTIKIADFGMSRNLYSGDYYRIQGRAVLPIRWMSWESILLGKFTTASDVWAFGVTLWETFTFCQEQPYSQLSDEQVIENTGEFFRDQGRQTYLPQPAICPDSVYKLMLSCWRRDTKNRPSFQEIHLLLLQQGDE
Description: as §1, §2

CSF1R = CSF1R (Homo sapiens, UniProt P07333); assay: biochemical
KIT = KIT (Homo sapiens, UniProt P10721); assay: KINOMEscan competition binding assay
Sequence of KIT (P10721 26-976): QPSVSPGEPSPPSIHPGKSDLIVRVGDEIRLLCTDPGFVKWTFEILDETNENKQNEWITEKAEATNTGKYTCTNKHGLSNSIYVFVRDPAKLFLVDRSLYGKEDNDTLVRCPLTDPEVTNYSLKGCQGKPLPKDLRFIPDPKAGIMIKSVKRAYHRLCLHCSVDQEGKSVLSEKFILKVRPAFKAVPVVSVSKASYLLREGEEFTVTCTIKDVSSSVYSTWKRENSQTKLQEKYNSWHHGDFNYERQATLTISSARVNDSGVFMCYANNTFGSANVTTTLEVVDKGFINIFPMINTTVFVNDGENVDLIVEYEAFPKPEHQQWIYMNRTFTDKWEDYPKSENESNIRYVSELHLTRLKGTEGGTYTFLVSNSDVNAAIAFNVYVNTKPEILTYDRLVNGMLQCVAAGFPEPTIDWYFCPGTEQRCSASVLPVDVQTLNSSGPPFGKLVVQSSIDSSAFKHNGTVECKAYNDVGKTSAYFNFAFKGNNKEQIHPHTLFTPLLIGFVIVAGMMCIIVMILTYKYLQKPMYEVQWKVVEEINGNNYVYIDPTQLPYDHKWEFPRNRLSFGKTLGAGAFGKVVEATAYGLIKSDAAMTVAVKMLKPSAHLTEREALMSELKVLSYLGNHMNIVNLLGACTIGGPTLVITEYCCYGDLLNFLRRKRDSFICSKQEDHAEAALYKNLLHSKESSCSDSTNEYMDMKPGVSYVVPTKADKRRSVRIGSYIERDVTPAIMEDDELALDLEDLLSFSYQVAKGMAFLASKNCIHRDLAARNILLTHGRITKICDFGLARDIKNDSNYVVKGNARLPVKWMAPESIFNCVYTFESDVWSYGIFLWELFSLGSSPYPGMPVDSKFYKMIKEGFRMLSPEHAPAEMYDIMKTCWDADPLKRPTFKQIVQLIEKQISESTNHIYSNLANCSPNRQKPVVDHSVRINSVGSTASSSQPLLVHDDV

[3] = molecular target: T10, phosphatidylinositol 5-phosphate 4-kinase type-2 gamma (PI42C) (Homo sapiens, UniProt Q8TBX8); assay: KINOMEscan competition binding assay
T10 construct: purchased Eurofins DiscoverX Corporation (KINOMEscan); host or cells: E. coli BL21-derived host (T7 phage) or HEK-293
T10 sequence (Q8TBX8 1-421): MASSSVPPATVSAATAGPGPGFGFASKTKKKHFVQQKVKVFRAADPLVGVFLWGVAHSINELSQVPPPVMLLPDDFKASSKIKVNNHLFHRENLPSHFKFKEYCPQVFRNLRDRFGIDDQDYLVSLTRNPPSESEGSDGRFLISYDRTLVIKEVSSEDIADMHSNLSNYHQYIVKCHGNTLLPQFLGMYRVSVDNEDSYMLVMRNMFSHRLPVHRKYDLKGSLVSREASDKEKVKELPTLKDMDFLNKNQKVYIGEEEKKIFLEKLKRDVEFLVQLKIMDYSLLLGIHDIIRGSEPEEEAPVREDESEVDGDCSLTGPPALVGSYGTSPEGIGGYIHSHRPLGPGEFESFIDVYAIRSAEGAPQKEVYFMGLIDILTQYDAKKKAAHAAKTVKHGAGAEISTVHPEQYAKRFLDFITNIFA
Description: The ligand-bound beads were blocked with excess biotin and washed with blocking buffer (SeaBlock (Pierce), 1% BSA, 0.05% Tween 20, 1 mM DTT) to remove unbound ligand and to reduce nonspecific binding. […] Test compounds were prepared as 111× stocks in 100% DMSO. Kds were determined using an 11-point 3-fold compound dilution series with three DMSO control points.
as §2

[4] = read-out: Compound Activity Remaining at 1 μM (%)

COc1ccc(-c2cncc(N[C@@H](C)c3cccc(NC(=O)c4cncc(C)c4)c3)n2)cc1OC [Compound B]
Kd (FLT4): 18 nM | remaining binding at 1 µM (FLT4; [4]): 12% | Kd (FYN): 55 nM | remaining binding at 1 µM (FYN; [4]): 9.7% | Kd (LCK): 22 nM | remaining binding at 1 µM (LCK; [4]): 1.1% | Kd (SRC): 130 nM | remaining binding at 1 µM (SRC; [4]): 6.4% | Kd (DDR1): 3.5 nM | remaining binding at 1 µM (DDR1; [4]): 0.2% | remaining activity at 1 µM (ABL-1-nonphosphorolated [1]): 3.3% | kinase found to be inhibited (ABL-1-nonphosphorolated [2]): inhibited | Kd (FRK): 11 nM | remaining binding at 1 µM (FRK; [4]): 5.3% | Kd (HCK): 36 nM | remaining binding at 1 µM (HCK; [4]): 3.3% | Kd (RET): 19 nM | remaining binding at 1 µM (RET; 1 μM compound): 3.9% | Kd (LYN): 24 nM | remaining binding at 1 µM (LYN; 1 μM compound): 7.3% | Kd (VEGFR2): 15 nM | remaining binding at 1 µM (VEGFR2; 1 μM compound): 0.25% | Kd (PDGFR-α): 4 nM | remaining binding at 1 µM (PDGFR-α; 1 μM compound): 0.35% | Kd (PIK4CB): 150 nM | remaining binding at 1 µM (PIK4CB; 1 μM compound): 3.8% | Kd (PDGFR-β): 0.82 nM | remaining binding at 1 µM (PDGFR-β; 1 μM compound): 0% | Kd (FGR): 92 nM | remaining binding at 1 µM (FGR; 1 μM compound): 21% | Kd (DDR2): 19 nM | remaining binding at 1 µM (DDR2; 1 μM compound): 1.8% | Kd (CSF1R): 6.1 nM | remaining activity at 1 µM (CSF1R; [4]): 0.7% | Kd (KIT): 4.7 nM | remaining binding at 1 µM (KIT; [4]): 0%

imatinib [Compound A, reference compound]
Kd (FLT4; FLT4): > 10000 nM | Compound Activity Remaining at 1 μM (%) (FLT4; FLT4, 1 μM compound): 87% | kinase found to be inhibited [3]: inhibited | Kd (RET): > 10000 nM | Compound Activity Remaining at 1 μM (%) (RET; 1 μM compound): 98% | Compound Activity Remaining at 1 μM (%) (LYN; 1 μM compound): 30% | Compound Activity Remaining at 1 μM (%) (VEGFR2; 1 μM compound): 70% | Compound Activity Remaining at 1 μM (%) (PDGFR-α; 1 μM compound): 0.95% | Compound Activity Remaining at 1 μM (%) (PIK4CB; 1 μM compound): 59% | Compound Activity Remaining at 1 μM (%) (PDGFR-β; 1 μM compound): 0.15% | Compound Activity Remaining at 1 μM (%) (FGR; 1 μM compound): 70% | Compound Activity Remaining at 1 μM (%) (DDR2; 1 μM compound): 0.8% | Compound Activity Remaining at 1 μM (%) (KIT; KIT, 1 μM compound): 0.5%
